According to ChEMBL document CHEMBL5335850, “Isolation of Paraphaeoketones: A Plausible Biosynthetic Explanation for Paraphaeolactones via a Benzilic Acid Rearrangement Rather than a Favorskii Rearrangement” (J Nat Prod, 2024):
Activity calls are given as the source filed them. No cut-off for these calls is given here.

How the values were obtained:
Bipolaris oryzae = assay: Antifungal activity against Bipolaris oryzae assessed as inhibition of fungal growth incubated for 5 days by paper disk method; format: functional, organism-based; conditions: time 5.0 day
COLO 201 = assay: Cytotoxicity against human COLO201 cells assessed as inhibition of cell proliferation incubated for 24 hrs by WST-1 reagent based titer-plate reader assay; format: functional

Row | SMILES | Activity (Bipolaris oryzae) | Activity (COLO 201)
1 | CC1C2CC3(O)OC(C)(O2)C(=O)C1C3O (stereo unspecified) | inactive | inactive
2 | C[C@@H]1C=C[C@@]2(O)[C@H](O)[C@@H]1C(=O)[C@]1(O)O[C@H]3C(=O)[C@@H]4[C@H](C)C=C[C@](O)([C@H]3[C@H]21)[C@@H]4O | inactive | inactive
3 | CC1C=CC2(O)CC(=O)C(=O)C1C2O (stereo unspecified) | inactive | inactive
